# Data taken from patent US9394338B2, “Glutathione analogs and uses thereof” (REGENTS OF THE UNIVERSITY OF MINNESOTA, priority 2011, dated 2016).
# What was measured:
# [1] = test system: Swiss Webster Mice; assay: ACP (acetaminophen) overdose rescue and effects on normal liver; format: in vivo
# Procedure: 36-Male Swiss Webster Mice (HSD) were fasted over-night and then brought to the lab at 8:00 am the following day and weighed. Food was kept out of the cages until after the final drug injection. Mice were divided into treatment groups as below in Table 2.
# Thirty minutes post overdose with 370 mg/kg ACP, the following were evaluated for the groups in Table 2:
# N-acetylcysteine (NAC) at 7.35 mmol/kg;
# Ψ-GSH at three different doses, 3.67, 2.45 and 1.22 mmol/kg; and
# examine effects of Ψ-GSH on normal liver at rescue doses.
# [2] = test system: GSH uptake transporters; assay: Inhibition of [3H]-GSH uptake; format: cell-based, human; conditions: 100 nM [3H]-GSH; 1 μM, 100 nM and 10 nM compound
# Procedure: Inhibition of Glutathione Uptake by Ψ-GS. The uptake experiment was performed under conditions described previously. Briefly, the cells were seeded in 24-well plates. After an overnight incubation, the cells were treated with 100 nM concentration of [^3H]-GSH in uptake buffer (128 mM NaCl, 4.73 mM KCl, 1.25 mM CaCl2, 1.25 mM MgSO4, and 5 mM HEPES, pH =7.4) in the presence or absence of Ψ-GSH at concentrations of 10, 100 and 1000 nM at 37° C. under 5% CO2 for 30 min. At the end of incubation, the cellular uptake was terminated by washing three times with ice-cold PBS. Any remaining buffer was aspirated, and the cells were lysed with 1 ml of warm 0.1% SDS/0.1 N NaOH solution for a minimum of 45 min. Intracellular levels of radioactive GSH were determined using liquid scintillation counting. All resulting levels of GSH uptake were normalized to the total protein in each well using a BCA protein assay. All uptake experiments were performed in triplicate and statistically significant differences in uptake were evaluated using Graphpad Prism 5.1 (Graphpad, La Jolla, Calif.) using a one-way ANOVA followed by a Dunnett's post hoc test with a false discovery rate of 0.05.
# [3] = Non-protein thiols in plasma and brain (DTNB); format: in vivo, C57BL/6 mice
# Procedure: Detection of Non-Protein Thiols in Plasma and Brain. Wild type C57BL/6 mice at the age of six to eight weeks (4 per group) were treated with Ψ-GSH i.p and orally. Mice were euthanized by overdose of ketamine and xylazine at the desired time-points from the administration of the drug (0, 0.5, 1, 2 and 4 hours after drug administration). Brain and plasma samples were collected. Brains were perfused with ice-cold 0.9% NaCl, and cut sagittally into left and right hemispheres. The right hemisphere was fixed in Zamboni's fixative as described under Immunohistochemistry. The left hemispehere was immediately frozen in liquid nitrogen and utilized in further biochemical analysis. Brain tissue was homogenized in ice-cold buffer (50 mM phosphate, pH 7.0, containing 1 mM EDTA containing protease inhibitors) containing 5% sulfosalicylic acid. After homogenization, samples were centrifuged at 8000×g for 10 min at 4° C. The clear supernatant was transferred to a new tube and used for analysis of free thiol concentration.
# Blood was collected in heparin-coated tubes (Fisher, Pittsburgh, Pa.) and immediately centrifuged at 5000×g for 10 min at 4° C. […]
# Assay Conditions: 150 μl of Tris.HCl, pH 8.9 (Trizma base, 0.2 M; EDTA 0.02 M)+20 μl of DTNB (1 mg/mL in methanol)+50 μl of supernatant from TCA precipitation. The changes in absorbance were measured at 412 nm after […] incubation in dark at room temperature.
# [4] = test system: APP/PS1 mice; assay: Brain ROS assay (DCFH-DA); format: in vivo
# Procedure: Efficacy Study Design. To determine the effect of intraperitoneal and oral Ψ-GSH treatment, the study was divided in four groups (10 mice/group). 1. APP/PS1 mice-vehicle control, 2. APP/PS1 mice-Ψ-GSH i.p. 500 mg/kg, 3. APP/PS1 mice-Ψ-GSH oral 500 mg/kg, 4. Non-transgenic wild type mice-vehicle control. All the animals in the above-said groups were treated with saline or Ψ-GSH three times a week for 12 weeks, starting at the age of three to four months. Eleven weeks after the start of the treatment, the animals were tested in the Morris water maze, and twelve weeks after the start of the treatment, the animals were sacrificed for histopathological analysis.
# ROS Assay. ROS levels were quantified via the 2′-7′-dichlorofluorescein-diacetate (DCFH-DA) assay. […] The reaction was then stopped by placing it on ice and the formation of oxidized fluorescent 2′-7′-dichlorofluorescein (DCF) was measured with a fluorescence plate reader (BioTek SynergyHT, VT, USA) using excitation and emission wavelengths at 488 and 525 nm, respectively. The final results were corrected for protein concentration and then expressed as percentage of the corresponding values in saline treated wild-type mice. All steps were performed in the dark and DCF formation was also monitored immediately after DCFH-DA was added to the homogenate (t=0 min) in order to subtract background autofluorescence.
smiles,measurement,setting,value
"N[C@@H](CNC(=O)N[C@@H](CS)C(=O)NCC(=O)O)C(=O)O [Ψ-GSH, γ-Gla-Cys-Gly-OH]",liver histopathology after ACP overdose,[1]; 370 mg/kg ACP + rescue agent,absence of necrotic tissue
same,ALT levels after ACP overdose,"[1]; 370 mg/kg ACP, rescue 30 min later at half molar equivalent of NAC",decrease in ALT levels comparable to that caused by NAC
same,tolerability when given alone,"[1]; mouse, in vivo",safe and well tolerated
same,[3H]-GSH uptake by SH-SY-5Y cells,[2],inhibited in a dose-dependent manner
same,plasma thiol level,"[3]; oral 500 mg/Kg, over 2 hours",reducing to basal levels
same,plasma thiol level,"[3]; single i.p. 500 mg/Kg, at 4 hours",dropped to basal levels
same,"total brain ROS levels, increase over WT mice",[4]; i.p.,6%
same,levels of ROS,[4]; oral,unaffected
